Results as given in patent US20230293479A1, “MEDICINAL COMPOUNDS AND NUTRITIONAL SUPPLEMENTS” (RECEPTOR HOLDINGS, INC., priority 2017, published 2023).

Key:
[1] = Example 4: cannabis/SNAC oral rat pharmacokinetic (PK) study; type: in vivo, rats; conditions: for Cmax increase over cannabis alone: oral gavage, 50 mg/kg cannabis extract with 500 mg/kg SNAC versus 25 mg/kg cannabis alone
Method: Example 4. Summary of cannabis/SNAC oral rat pharmacokinetic (PK) study.
Methods. Animals were dosed on Day 1 and a series of blood samples were collected over a period of 4 hours post dose for pharmacokinetic evaluation. Animals were euthanized following collection of their last blood sample.

[2] = cited from earlier work
study participants [3] = assay: Example 1: onset and duration of action of orally administered cannabis/SNAC composition (self-reported euphoria/dysphoria, 200 mg SNAC); type: in vivo, human; conditions: oral cannabinoid formulation, 200 mg SNAC
Method: Example 1. […] This study was designed to assess the utility of SNAC in enabling a rapid-acting oral form of cannabis.
Selection of Participants. Six study participants were recruited to ingest cannabis compositions and record the onset, duration, and intensity of cannabis-induced euphoria and/or dysphoria.
(§1) Formulations. The selected cannabis concentrate is commercially available and was provided to participants in an ethanol solution. The concentrate contains 8 mg THC per dose. It was selected because it contains a high percentage of THC, which provides a noticeable effect on user-reported “euphoria”.
(§2) Methods. For the Control experiment, each participant mixed the cannabis concentrate with 15 ml (one tablespoon) of aqueous ethanol, and immediately swallowed the mixture.
(§3) For both the Control experiment and the Test experiment, each participant recorded the time of dose administration, the time of onset of euphoria and/or dysphoria, and the observed level of euphoria and/or dysphoria in fifteen minute intervals for five hours following administration of the cannabis dose. Euphoria and dysphoria were reported using a scale value, in a range from 1-10.

study participants [4] = assay: Example 2: onset and duration of action of orally administered cannabis/SNAC composition at a low SNAC dose (100 mg); type: in vivo, human; conditions: oral cannabinoid formulation, 100 mg SNAC
Method: Example 2. […] This study was designed to assess the utility of SNAC in enabling a rapid-acting oral form of cannabis at a low dose.
Selection of Participants. Three study participants were recruited to ingest cannabis compositions and record the onset, duration, and intensity of cannabis-induced euphoria and/or dysphoria.
as §1, §2, §3

| Structure (SMILES) | Cmax increase over cannabis alone ([1]; rats) [fold] | mean maximum concentration Cmax ([1]; rats, single oral gavage, cannabis extract (THC/CBD 1:1) with SNAC, range over Groups 3-5 (25/250, 25/500, 50/500 mg extract/kg and mg SNAC/kg)) [µg/mL] | AUC0-Tlast ([1]; rats, single oral gavage, cannabis extract with SNAC, range over Groups 3-5) [µg·h/mL] | time to reach the mean maximum plasma concentration (Tmax) ([1]; rats, single oral gavage, cannabis extract with SNAC, range over Groups 3-5, post dose) [min] | duration of appetite stimulant effect ([2]; after administration) [h] | onset of action ([2]; after oral administration) [h] | peak effect ([2]; after oral administration) [h] | administered dose reaching the systemic circulation ([2]; oral, first pass hepatic metabolism and high lipid solubility) | effect of the absorption enhancer on the cannabinoid duration of action (study participants [3]) | effect of the absorption enhancer on the duration of action (study participants [4]) | effect on cannabinoid absorption ([1]; administered to rats by oral gavage) |
| --- | --- | --- | --- | --- | --- | --- | --- | --- | --- | --- | --- |
| C=C(C)[C@@H]1CCC(C)=C[C@H]1c1c(O)cc(CCCCC)cc1O [CBD, cannabidiol] | 14.2 | 0.0317 to 0.1593 | 0.01317 to 0.38214 | 15 to 60 |  |  |  |  |  |  |  |
| CCCCCc1cc(O)c2c(c1)OC(C)(C)[C@@H]1CCC(C)=C[C@@H]21 [THC, (−)-trans-delta-9-tetrahydrocannabinol] | 6.9 |  |  |  | ≥ 24 | 0.5 to 1 | 2 to 4 | 10-20% |  |  |  |
| O=C([O-])CCCCCCCNC(=O)c1ccccc1O.[Na+] [SNAC, sodium N-[8-(2-hydroxybenzoyl)amino] caprylate] |  |  |  |  |  |  |  |  | no effect | no effect | enhances cannabinoid absorption |
